These results are taken from patent US20040267283A1, “Method, device and kit for body decoration” (priority 2003, published 2004).

Data set [1] relates to swine ear skin. Here is the method: An in-vitro skin penetration study was conducted to determine which combination of parameters results in the maximum amount of active substance, e.g., color formulation, being delivered into the skin, i.e., the dermis and epidermis, but not through the skin, i.e., beneath the epidermis.
The in-vitro skin penetration study generally included the following test procedure. Decoration ink, as in embodiments of the present invention, was applied on a piece of swine ear skin. The swine skin was excised to full thickness (epidermis and dermis) to an approximate depth of 500-1000 μm. […]
At the end of the exposure period, the entire receptor compartment was drained and the solution reserved for subsequent analysis of the dye(s) and/or pigment(s). […] The depth of penetration was measured by noting the number of tape strippings required to remove the ink. […] The ink was determined quantitatively using customary analytical procedures (e.g., HPLC, UV-Vis spectrum, GC, radiolabeled detection, etc.), as applicable. […]
In these experiments, the enhancing effect of iontophoresis and/or electroosmosis on skin penetration of different dyes was assessed. […] The following properties were measured to determine the enhancing effect of iontophoretic induction on the dyes' skin penetration: uniformity of the dyeing by observation; and penetration depth by tape stripping. […]

The conditions of data set [2]: reason for choosing the additional dyes; cited from earlier work.
Data set [3] has as its system human. The conditions noted are these: reason for choosing the additional dyes; cited from earlier work.
Data set [4] deals with human skin. As to the kind of experiment: In-vivo human skin tattoo with imprinted hydrogel patches. The following applies: Exp 2.16, human study, star shape, 50 mg/ml in ddw, 0.04 mAmp, 60 min, skin cleaned with 10% lactic acid.
Data set [5] has as its system swine skin. As to the kind of experiment: In-vitro skin penetration, hydrogel patches on stretched skin (vertical diffusion cells without cell tops), tape stripping. The conditions noted are these: for Depth of penetration (Tape strips = TS): skin cleaned with 10% lactic acid. It is filed as in vitro ADME. As to the method:
In the second part of the in-vitro skin penetration study, the color application included the use of a hydrogel patch and dye FD&C Red no. 40 and additional dyes, Acid Blue 1 (Blue V) and Indocyanine green, on the swine skin. All chemicals used were analytical grade, obtained from standard supply houses (Sigma, VWR, etc.). […] In these experiments, the depth of penetration was tested for the additional dyes using iontophoresis and/or electroosmosis. Additionally, extensive work was done in order to establish a shaped tattoo that is sharp and has strong color imprint. The experiments were also directed to the effect of the application duration on the tattoo life span. The following properties of the tattoo were measured to determine the effects of iontophoresis on the dyes and pigments' skin penetration: uniformity of the dyeing by observation; penetration depth by tape stripping; and water durability by washing the skin with tap water.
The experiments performed in this second part of the study are described below. Experiments 2.1-2.8 and 2.10-2.14 were conducted on in-vitro swine skin. Experiments 2.9, 2.15, and 2.16 were conducted on in-vivo human skin. FIGS. 6-14 illustrate the body decoration results from the experiments.
This experiment was conducted to determine the dye penetration depth of stretched skin, as would be the case on the subject's body area. In the vertical diffusion cells without the cell tops, the skin was stretched with the cell clamps. To increase the water content of the hydrogel in the patches, the hydrogel was soaked with ddw for 2 minutes. Excess water was then absorbed. Tissue paper heart-shaped pieces were soaked in Blue V solution (100 mg/ml in ddw). The blue heart shapes were placed on the patches' hydrogel and removed a few seconds later, leaving a blue heart-shaped imprint on the hydrogel. The hydrogel patches with the blue heart-shaped imprint were placed on the skin after the skin was cleaned with 10% lactic acid. In the active experiments, the patch wires were connected to a power supply tuned to 0.5 mAmp (0.5 mAmp/cm^2). […] The dye penetration depth was determined by tape stripping.
Blue heart-shaped tattoos were created, as described before in Experiment 6. This experiment was conducted to sharpen the tattoo by soaking the hydrogel in ddw for only few seconds.
In this experiment, the patches' hydrogel content was changed. Instead of KCl, the hydrogel contained NaCl. 100 mg/ml Blue V in ddw with 10% ethanol was used to create the blue heart-shaped imprint. The assay lasted 20 minutes and was done in duplicates. […] The penetration depth was lower with NaCl than KCl in Experiment 2.6.

The nature of data set [6]: Solubility of the dyes. It is filed as physicochemical. As to the method: (§1) In the first part of the in-vitro skin penetration study, the color application included the use of dyes D&C Green no. 6, FD&C Blue no. 1, FD&C Yellow no. 6, and FD&C Red no. 40. All chemicals used were analytical grade, obtained from standard supply houses (Sigma, VWR, etc.). The dyes were dissolve in ddw and the solution conductivity was measured using a dedicated apparatus. The target conductivity was defined as a minimum of 1 mAmp/cm^3 current at 3 volts. If such conductivity was not attained, the dye concentration and/or the voltage were increased.

The subject of data set [7] is mice. The following applies: cited from earlier work; for Toxicity, LD50: IP in mice.
Data set [8] can be described thus: Solution conductivity of the dyes (current at applied voltage). Type of data set: physicochemical. Here is the method:
as §1, with “increased. See Table 1 for the solubility and conductivity of the dyes.” for “increased.”

Data set [9] in a line: Solubility of the dyes. Type of data set: physicochemical. The source holds these as a separate data set.
Data set [10] relates to rabbit. The following applies: SC in rabbit; cited from earlier work.

For `CCN(CC)c1ccc(C(=C2C=CC(=[N+](CC)CC)C=C2)c2ccc(S(=O)(=O)[O-])cc2S(=O)(=O)[O-])cc1.[Na+]` [Blue V, Acid Blue 1], in data set [1], the “Effect of iontophoresis on skin penetration depth” value is recorded as “increased”. The Solubility in water entry in data set [2] was “soluble in water”. The “Toxicity (approved for human injection)” value in data set [3] is reported as “nontoxic”. Besides, the “Time after which the dye completely faded (tattoo life span)” value is recorded as “after 10 days” in [4] (Active With polyester) and “after 7 days” in [4] (Active Without polyester). The “Depth of penetration (Tape strips = TS)” value is “Anode - TS# 3” in data set [5] (Exp 2.13, Active, Anode, hydrogel with NaCl, 100 mg/ml in ddw with 10% ethanol, current = 500 μA/cm^2, 20 min); “Cathode - TS# >4” in [5] (Exp 2.13, Active, Cathode, hydrogel with NaCl, 100 mg/ml in ddw with 10% ethanol, current = 500 μA/cm^2, 20 min); “TS# 3” in data set [5] (Exp 2.13, Passive, hydrogel with NaCl, 100 mg/ml in ddw with 10% ethanol, 20 min); “Anode - TS# 5” in data set [5] (Exp 2.6, Active, Anode, 100 mg/ml in ddw, stretched skin, current = 500 μA/cm^2, 30 min); “Cathode - TS# >6” in [5] (Exp 2.6, Active, Cathode, 100 mg/ml in ddw, stretched skin, current = 500 μA/cm^2, 30 min); “TS# 4” in data set [5] (Exp 2.6, Passive, 100 mg/ml in ddw, stretched skin, 30 min). Further, the “Depth of penetration (Tape strips = TS)” value in [5] (Exp 2.8, Active, Anode, 100 mg/ml in ddw, hydrogel soaked in ddw for only few seconds, current = 500 μA/cm^2) is reported as “Anode - TS# 4”; in data set [5] (Exp 2.8, Active, Cathode, 100 mg/ml in ddw, hydrogel soaked in ddw for only few seconds, current = 500 μA/cm^2), “Cathode - TS# >7”; in data set [5] (Exp 2.8, Passive, 100 mg/ml in ddw, hydrogel soaked in ddw for only few seconds), “TS# 4”. Besides, the “Penetration depth with NaCl hydrogel compared with KCl hydrogel” value in [5] (Exp 2.13 compared with Exp 2.6) is on record as “lower”.
With `CCN(Cc1cccc(S(=O)(=O)[O-])c1)c1ccc(C(=C2C=CC(=[N+](CC)Cc3cccc(S(=O)(=O)[O-])c3)C=C2)c2ccccc2S(=O)(=O)[O-])cc1.[Na+].[Na+]` [Blue no. 1, FD&C Blue no. 1], the Solubility result in data set [6] (2 mg/ml in water), in data set [6] (6 mg/ml in water), in data set [6] (10 mg/ml in water) and in data set [6] (20 mg/ml in water) was “Soluble” each time. For the same compound, the Toxicity in data set [7] (SC in mice) was 5.5 gm/kg. Also, the Current result is listed as “None” in data set [8] (2 mg/ml in water, 3 V); “˜0.3 mA” in data set [8] (6 mg/ml in water, 3 V); 1 mA in data set [8] (6 mg/ml in water, 3.92 V); “˜0.4 mA” in data set [8] (10 mg/ml in water, 3 V); 1 mA in data set [8] (10 mg/ml in water, 3.69 V); “˜0.4 mA” in data set [8] (20 mg/ml in water, 3 V). The compound further had a Current in data set [8] (20 mg/ml in water, 3.69 V) of 1 mA.
Consider `Cc1ccc(Nc2ccc(Nc3ccc(C)cc3)c3c2C(=O)c2ccccc2C3=O)cc1` [Green no. 6, D&C Green no. 6], for which the Solubility result in data set [6] (10 mg/ml in water), in [9] (2.5 mg/ml + 30% ethanol) and in [9] (10 mg/ml + 30% ethanol) was “Insoluble” throughout. Besides, in data set [7], the “Toxicity, LD50” value is “LD50 = 0.25 gm/kg”.
In the case of `CC1(C)C(/C=C/C=C/C=C/C=C2\N(CCCCS(=O)(=O)O)c3ccc4ccccc4c3C2(C)C)=[N+](CCCCS(=O)(=O)[O-])c2ccc3ccccc3c21` [Green, Indocyanine green, reference compound], the “Effect of iontophoresis on skin penetration depth” value in [1] was “not affected”. In addition, the Solubility in water result in data set [2] is listed as “soluble in water”. Besides, the “Toxicity (approved for human injection)” value in [3] is recorded as “nontoxic”.
Turning to `COc1cc(S(=O)(=O)[O-])c(C)cc1N=Nc1c(O)ccc2cc(S(=O)(=O)[O-])ccc12.[Na+].[Na+]` [Red no. 40, FD&C Red no. 40], the Solubility entry in data set [6] (10 mg/ml in water) and in [6] (20 mg/ml in water) was “Soluble” in each case. Besides, in [10], the “Toxicity, LD50” value is given as “LD50 > 10 gm/kg,”. In addition, the Current entry in data set [8] (10 mg/ml in water, 3 V) was “˜0.3 mA”; in data set [8] (10 mg/ml in water, 4.15 V) it was 1 mA; in data set [8] (20 mg/ml in water, 3 V) it was 1.1 mA.
With `O=S(=O)([O-])c1ccc(N=Nc2c(O)ccc3cc(S(=O)(=O)[O-])ccc23)cc1.[Na+].[Na+]` [Yellow no. 6, FD&C Yellow no. 6], in data set [7], the “Toxicity, LD50” value is listed as “LD50 = 4.6 gm/kg”. For the same compound, the Current in [8] (20 mg/ml in water, 3 V) amounted to 1.3 mA.
